This note sets out measurements from patent publication US9409905B2, “Antibacterial compounds and methods for use” (PTC THERAPEUTICS, INC., priority 2011, dated 2016).

The subject of test [1] is Acinetobacter baumannii (A. baumannii) BAA747. Briefly: Antibacterial activity, MIC (Table 4). It is filed as cell-based. The conditions noted are these: A. baumannii BAA747, read-out: MIC, BAA747. The gist of the method: (§1)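 Compounds are serially diluted in microbroth, bacteria are grown under the test conditions, and growth is then inspected macroscopically. The lowest concentration without visible growth is reported as the MIC (μg/mL).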

Test [2] has as its system Klebsiella pneumoniae (K. pneumoniae) 35657. Kind of test: Antibacterial activity, MIC (Table 4). The conditions noted are these: K. pneumoniae 35657, read-out: MIC, 35657. Format: cell-based. The gist of the method:
as §1

The subject of the next test is E. coli ELZ4251. Kind of test: Antibacterial activity, MIC, multi-drug resistant clinical isolate (Table 3). Format: cell-based. The conditions noted are these: Escherichia coli. The gist of the method: (§2)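 Values derive from a microbroth dilution method, taking as MIC (μg/mL) the lowest tested concentration without macroscopically visible growth.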
The subject of another test is E. coli ELZ4000. The description is as above. Format: cell-based. The conditions noted are these: Escherichia coli, ELZ4000, read-out: MIC ELZ4000. An outline of the steps:
as §2

For test [3], the system named is Staphylococcus aureus (S. aureus) 29213. Kind of test: Antibacterial activity, microbroth dilution MIC (Table 1). Format: cell-based. The conditions noted are these: microbroth dilution, Gram-positive S. aureus 29213, read-out: MIC, 29213. The gist of the method:
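Potency is reported as minimum inhibitory concentration in μg/mL, determined by broth microdilution as the lowest level of compound that stops growth visible to the eye.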

In test [4] the test system is Escherichia coli (E. coli) BAS849. The description is as above. It is filed as cell-based. The conditions noted are these: microbroth dilution, super sensitive Gram-negative E. coli BAS849, read-out: MIC, BAS849. An outline of the steps:
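Values are MICs (μg/mL): the smallest drug amount at which macroscopically visible bacterial growth is absent under assay conditions, from a microdilution method in broth.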
For orientation: Broth dilution looks for growth in wells or tubes with falling amounts of substance.

The next test concerns K. pneumoniae MXX1232. Briefly: Antibacterial activity, MIC, resistant strain (Table 4). It is filed as cell-based. The conditions noted are these: Klebsiella pneumoniae, MXX1232; resistant K. pneumoniae MMX1232, multi-drug resistant clinical isolate; read-out: MIC, MMX1232. The gist of the method: as §1
The next test deals with A. baumannii MXX2240. The description is as above. It is filed as cell-based. The conditions noted are these: Acinetobacter baumannii, MXX2240; resistant A. baumannii MMX2240, multi-drug resistant clinical isolate; read-out: MIC, MMX2240. An outline of the steps:
as §1

Another test deals with E. coli 25922. Briefly: Antibacterial activity, microbroth dilution MIC (Table 1). Format: cell-based, Escherichia coli. The conditions noted are these: Escherichia coli; microbroth dilution; control Gram-negative E. coli 25922 strain; read-out: MIC, 25922. An outline of the steps:
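Broth microdilution against S. aureus 29213, E. coli 25922 and hypersensitive E. coli BAS849. MIC in μg/mL is the lowest drug concentration preventing macroscopically visible growth under test conditions.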

Another test concerns E. coli LZ3111. Briefly: Antibacterial activity, MIC, quinolone resistant strain (Table 2). Format: cell-based. The conditions noted are these: Escherichia coli, LZ3111, read-out: MIC LZ3111. An outline of the steps:
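Growth inhibition assessed by serial drug dilution in broth; endpoint was absence of macroscopically visible growth, reported as MIC, μg/mL.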

Test [5] relates to Pseudomonas aeruginosa (P. aeruginosa) 27853. Briefly: Antibacterial activity, MIC (Table 5). The conditions noted are these: P. aeruginosa 27853, read-out: MIC, 27853. It is filed as cell-based. An outline of the steps:
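Using a microbroth dilution format, the minimum inhibitory concentration was recorded as the lowest tested concentration that stopped visible bacterial growth, expressed in μg/mL.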

For test [6], the system named is Haemophilus influenzae (H. influenzae) 49247. Kind of test: Antibacterial activity, MIC (Table 6). It is filed as cell-based. An excerpt:
(§3) The antibacterial activity from a microbroth dilution method may be presented as the minimum inhibitory concentration (MIC in μg/mL). The MIC value is the lowest concentration of drug which prevents macroscopically visible growth under test conditions.
(§4) Antibacterial activity of test compounds against the Gram-negative bacteria Haemophilus influenzae (H. influenzae) 49247 is shown in Table 6, Moraxella catarrhalis (M. catarrhalis) 25238 is shown in Table 7 and Neisseria meningitidis (N. meningitidis) 13090 is shown in Table 8.

Test [7] concerns Neisseria meningitidis (N. meningitidis) 13090. Briefly: Antibacterial activity, MIC (Table 8). It is filed as cell-based.
Description: as §3, §4

In brackets after ≈: the same amount, converted by molar mass. Bounds are passed on as bounds.

As for `CCc1cc(C(=O)O)c(=O)[nH]c1-c1ccc2c(c1)OCCN2C` [Cpd 3, 5-ethyl-6-(4-methyl-3,4-dihydro-2H-benzo[b][1,4]oxazin-7-yl)-2-oxo-1,2-dihydropyridine-3-carboxylic acid], the MIC is 3.5 to 12.5 µg/mL (≈ 11.1 to 39.8 µM) in [1]; 3.5 to 12.5 µg/mL (≈ 11.1 to 39.8 µM) in test [2]; 12.5 to 150 µg/mL (≈ 39.8 to 477 µM) with E. coli ELZ4251; 12.5 to 150 µg/mL (≈ 39.8 to 477 µM) in the test with E. coli ELZ4000; 12.5 to 150 µg/mL (≈ 39.8 to 477 µM) in [3]; less than 1 µg/mL in [4]. The MIC is 12.5 to 150 µg/mL (≈ 39.8 to 477 µM) in the test on K. pneumoniae MXX1232; 12.5 to 150 µg/mL (≈ 39.8 to 477 µM) in the test with A. baumannii MXX2240; 1 to 3.5 µg/mL (≈ 3.18 to 11.1 µM) in the test with E. coli 25922; 12.5 to 150 µg/mL (≈ 39.8 to 477 µM) with E. coli LZ3111; 12.5 to 150 µg/mL (≈ 39.8 to 477 µM) in test [5]; less than 1 µg/mL in test [6].
As to `CCc1c(-c2ccc3c(c2)OCCN3C)[nH]c(=O)c(C(=O)O)c1O` [Cpd 4, 5-ethyl-4-hydroxy-6-(4-methyl-3,4-dihydro-2H-benzo[b][1,4]oxazin-7-yl)-2-oxo-1,2-dihydropyridine-3-carboxylic acid], the MIC was 1 to 3.5 µg/mL (≈ 3.03 to 10.6 µM) in test [1]; 3.5 to 12.5 µg/mL (≈ 10.6 to 37.8 µM) in test [2]; 3.5 to 12.5 µg/mL (≈ 10.6 to 37.8 µM) in the test on E. coli ELZ4251; 3.5 to 12.5 µg/mL (≈ 10.6 to 37.8 µM) in the test with E. coli ELZ4000; 3.5 to 12.5 µg/mL (≈ 10.6 to 37.8 µM) in test [3]; less than 1 µg/mL in test [4]. The MIC with K. pneumoniae MXX1232 is 12.5 to 150 µg/mL (≈ 37.8 to 454 µM); with A. baumannii MXX2240, 1 to 3.5 µg/mL (≈ 3.03 to 10.6 µM); in the test on E. coli 25922 it was 3.5 to 12.5 µg/mL (≈ 10.6 to 37.8 µM); in the test on E. coli LZ3111, 3.5 to 12.5 µg/mL (≈ 10.6 to 37.8 µM); in test [5], 12.5 to 150 µg/mL (≈ 37.8 to 454 µM); in test [6], less than 1 µg/mL.
For `CCc1cc(C(=O)O)c(=O)[nH]c1-c1ccc2c(ccn2CC)c1` [Cpd 9, 5-ethyl-6-(1-ethyl-1H-indol-5-yl)-2-oxo-1,2-dihydropyridine-3-carboxylic acid], the MIC was 12.5 to 150 µg/mL (≈ 40.3 to 483 µM) in the test with E. coli ELZ4251; 12.5 to 150 µg/mL (≈ 40.3 to 483 µM) in the test on E. coli ELZ4000; 12.5 to 150 µg/mL (≈ 40.3 to 483 µM) in [3]; less than 1 µg/mL in test [4]; 1 to 3.5 µg/mL (≈ 3.22 to 11.3 µM) in the test with E. coli 25922; 12.5 to 150 µg/mL (≈ 40.3 to 483 µM) with E. coli LZ3111. For the same compound, in test [6], the MIC was less than 1 µg/mL.
As to `CCc1c(-c2ccc3c(c2)oc(=O)n3C)[nH]c(=O)c(C(=O)O)c1O` [Cpd 11, 5-ethyl-4-hydroxy-6-(3-methyl-2-oxo-2,3-dihydrobenzo[d]oxazol-6-yl)-2-oxo-1,2-dihydropyridine-3-carboxylic acid], the MIC against E. coli ELZ4251 was 12.5 to 150 µg/mL (≈ 37.8 to 454 µM); in the test with E. coli ELZ4000, 12.5 to 150 µg/mL (≈ 37.8 to 454 µM); in test [3] it was 12.5 to 150 µg/mL (≈ 37.8 to 454 µM); in test [4] it was less than 1 µg/mL; in the test with E. coli 25922 it was 1 to 3.5 µg/mL (≈ 3.03 to 10.6 µM); with E. coli LZ3111, 12.5 to 150 µg/mL (≈ 37.8 to 454 µM). In test [6], this compound came in with an MIC of less than 1 µg/mL.
Take `CNC1Cc2cc3cc(-c4[nH]c(=O)c(C(=O)O)c(O)c4C)ccc3n2C1.Cl` (centres unmarked) [Cpd 415, 4-hydroxy-5-methyl-6-(2-(methylamino)-2,3-dihydro-1H-pyrrolo[1,2-a]indol-7-yl)-2-oxo-1,2-dihydropyridine-3-carboxylic acid hydrochloride]: the MIC fell in the range of 12.5 to 150 µg/mL in [1]; 3.5 to 12.5 µg/mL in test [2]; 1 to 3.5 µg/mL with E. coli ELZ4251; 3.5 to 12.5 µg/mL with E. coli ELZ4000; 12.5 to 150 µg/mL in test [3]; 1 to 3.5 µg/mL in test [4]. Moreover, the MIC in test [7] was 1 to 3.5 µg/mL; with K. pneumoniae MXX1232 it was 12.5 to 150 µg/mL; with A. baumannii MXX2240, 3.5 to 12.5 µg/mL; with E. coli 25922 it was 3.5 to 12.5 µg/mL; with E. coli LZ3111 it was less than 1 µg/mL; in test [5] it was 12.5 to 150 µg/mL.
With `CCc1c(-c2ccc3cc[nH]c3c2)[nH]c(=O)c(C(=O)O)c1O` [Cpd 423, 5-ethyl-4-hydroxy-6-(1H-indol-6-yl)-2-oxo-1,2-dihydropyridine-3-carboxylic acid], the MIC was less than 1 µg/mL in test [1]; less than 1 µg/mL in test [2]; 1 to 3.5 µg/mL (≈ 3.35 to 11.7 µM) against E. coli ELZ4251; 3.5 to 12.5 µg/mL (≈ 11.7 to 41.9 µM) in the test on E. coli ELZ4000; 1 to 3.5 µg/mL (≈ 3.35 to 11.7 µM) in test [3]; less than 1 µg/mL in test [4]. The MIC is less than 1 µg/mL in [7]; 12.5 to 150 µg/mL (≈ 41.9 to 503 µM) in the test with K. pneumoniae MXX1232; 1 to 3.5 µg/mL (≈ 3.35 to 11.7 µM) in the test on A. baumannii MXX2240; less than 1 µg/mL with E. coli 25922; 1 to 3.5 µg/mL (≈ 3.35 to 11.7 µM) with E. coli LZ3111; 3.5 to 12.5 µg/mL (≈ 11.7 to 41.9 µM) in [5].
